Laboratory results published in US5070210A, “Novel ketenimines as intermediates for insecticides” (ICI Americas Inc., priority 1990, dated 1991).

Key:
Format in all cases: in vivo
[1] = tested on: Housefly [Musca domestica]; assay: Housefly insecticidal test; details: μg per 25 female flies; mortality after 48 hours
Method in brief: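 Acetone solutions (with 0.01% peanut oil) dried onto dish bottoms, then 25 female flies, 1-2 days old, caged over the residue with sugar water. Mortality scored at 48 hours; LC50 from dosage-mortality curves, in μg per 25 female flies, top level 100 μg.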

[2] = tested on: Tobacco Budworm [Heliothis virescens (Fabricius)] eggs; assay: Tobacco budworm egg test; details: 2-day old eggs, percent in solution
Method in brief: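 Mortality of dipped eggs served as read-out, recorded after untreated controls hatched and began feeding. Treatments used acetone solutions from 0.1% downward, with eggs incubated at 78° F; LC50 is expressed as percent of compound in the solution.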

[3] = tested on: Beet Armyworm (Spodoptera exigua); assay: Beet armyworm insecticidal test; details: second-instar larvae, percent in solution; five days
Procedure: (§1) The compounds in Tables 1 and 2 above were tested for insecticidal activity using the following testing procedures. LC50 values, based on the results of these tests and calculated according to dosage-mortality curves, are expressed in Table 3.
Beet Armyworm (Spodoptera exigua):
Test compounds were diluted in a 50-50 acetone-water solution. Young leaves of sugar beets (Beta vulgaris) were immersed in the test solutions for 2-3 seconds and placed on a wire screen to dry. The dried leaves were placed in petri dishes containing a moistened filter paper and infested with five second-instar beet armyworm larvae. The dishes were placed in a high humidity chamber. Mortality of the larvae was recorded five days later. Test concentrations ranged from 0.1% downward. The LC-50 values are expressed below in Table 3 under the heading "BAW" in terms of percent of the test compound in solution.

[4] = tested on: Cabbage Looper [Trichoplusia ni (Hubner)]; assay: Cabbage looper insecticidal test; details: second-instar larvae, percent in solution; 3-5 days
Method in brief: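 Steps: dilute compound in 50-50 acetone-water from 0.1% downward; immerse cotyledon pieces 2-3 s and dry; place in humid petri dishes with five second-instar larvae; record mortality at 3-5 days. Dosage-mortality curves yield LC50 as percent in solution.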

[5] = tested on: Aster Leafhopper [Macrosteles fascifrens (Stal)]; assay: Aster leafhopper insecticidal test; details: adults/nymphs, percent in solution; 48 hours
Method in brief: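 Three ~10 cm oat seedlings per cup were dipped 2-3 seconds in 50-50 acetone-water compound solutions, dried, and caged with ten adult/nymph leafhoppers. Mortality was counted after 48 hours at concentrations from 0.05% downward. LC50, as percent compound in solution, came from dosage-mortality curves.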

[6] = tested on: Maize weevil [Sitophilus Zeamais (Motschulsky)]; assay: Maize weevil insecticidal test; details: adult weevils, percent in solution; 48 hours
Method in brief: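 LC50, in percent of compound in solution, was derived from dosage-mortality curves after 48 h at about 25 °C. Ten adult weevils per container fed on four corn seeds briefly immersed in acetone:water (50:50) solutions of up to 0.01% and dried.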

[7] = tested on: Tobacco Budworm [Heliothis virescens (Fabricius)] larvae; assay: Tobacco budworm contact test; details: second-instar larvae, percent in solution, 5 days
Procedure: as §1
Tobacco Budworm [Heliothis virescens (Fabricius)]:
(a) Contact: Test compounds were diluted in a 50-50 acetone-water solution. Cotton (Gossypium sp.) cotyledons were immersed in the test solutions for 2-3 seconds and placed on a wire screen to dry. The dried leaves were placed in petri dishes containing a moistened piece of filter paper and infested with 5 second-instar tobacco budworm larvae. The dishes were placed in a high humidity chamber for 5 days, and percent mortality of the larvae recorded. Test concentrations ranged from 0.1% downward. The LC-50 values are expressed below in Table 3 under the heading "TBW-C" in terms of percent of the test compound in the solution.

Row | Structure (SMILES) | LC50, HF [1] | LC50, TBW, E (TBW-E) [2] | LC50, BAW [3] | LC50, CL [4] | LC50, LH [5] | LC50, MW [6] | LC50, TBW, C (TBW-C) [7]
1 | CC(C)C(=Nc1cccc(Cl)c1)OCc1cccc(Oc2ccccc2)c1 [Compound 7] | 8 µg | 0.009% | 0.006% | 0.006% | 0.0002% |  | 
2 | CC(C)C(=Nc1ccc(Cl)c(Cl)c1)OCc1cccc(Oc2ccccc2)c1 [Compound 14] | 40 µg |  | 0.005% | 0.004% | 0.001% | 0.01% | 
3 | CC(C)C(=Nc1ccc(Cl)cc1)OCc1ccc(F)c(Oc2ccccc2)c1 [Compound 23] | 5 µg | 0.017% | 0.001% | 0.0005% |  |  | 
4 | Clc1ccccc1N=C(OCc1cccc(Oc2ccccc2)c1)C(Cl)Cl [Compound 34] | > 100 µg | > 0.1% | 0.015% | 0.015% |  |  | 0.01%
5 | CC(C)C(=Nc1ccc(F)cc1)OCc1cccc(Oc2ccccc2)c1 [Compound 46] | 7 µg | 0.016% | 0.006% | 0.003% | 0.002% |  | 
6 | CC(C)C(=Nc1ccc(F)cc1)OCc1ccc(F)c(Oc2ccccc2)c1 [Compound 53] | 2 µg | 0.02% | 0.003% | 0.0005% |  |  | 0.0025%
7 | CC(C)C(=Nc1cccc(C(F)(F)F)c1)OCc1cccc(Oc2ccccc2)c1 [Compound 67] | 15 µg | 0.01% | 0.006% | 0.001% | 0.00027% |  | 
8 | Cc1c(Cl)cccc1N=C(OCc1cccc(Oc2ccccc2)c1)C(Cl)Cl [Compound 97] | 10 µg | 0.04% | 0.01% | 0.002% |  |  | 0.004%
9 | CCC(C)C(=Nc1ccc(F)c(Cl)c1)OCc1cccc(Oc2ccccc2)c1 (centres unmarked) [Compound 122] | 37 µg | 0.05% | 0.01% | 0.0007% | > 0.05% | > 0.01% | 
10 | Cc1ccc(N=C(OCc2cccc(Oc3ccccc3)c2)C(Cl)Cl)cc1 [Compound 139] | 4.2 µg | 0.05% | 0.007% | 0.015% |  |  | 0.005%
11 | O=[N+]([O-])c1ccc(N=C(OCc2cccc(Oc3ccccc3)c2)C(Cl)Cl)cc1 [Compound 173] | 18 µg | > 0.1% | > 0.1% | 0.02% |  |  | > 0.1%
12 | O=[N+]([O-])c1cccc(N=C(OCc2cccc(Oc3ccccc3)c2)C(Cl)Cl)c1 [Compound 174] | 17 µg | > 0.1% | 0.1% | 0.03% |  |  | 
13 | CC(C)C(=Nc1ccc(F)c(Br)c1)OCc1cccc(Oc2ccc(F)cc2)c1 [Compound 253] | 10 µg | > 0.1% |  | 0.00013% | 0.003% | > 0.01% | 0.0005%
14 | CC(C)C(=Nc1ccc(Br)c(F)c1)OCc1ccc(F)c(Oc2ccc(F)cc2)c1 [Compound 282] | 16 µg | 0.02% | 0.0025% | 0.00007% |  | 0.008% | 0.0007%
15 | CC(C)C(=Nc1ccc2c(c1)OC(C)(C)O2)OCc1ccc(F)c(Oc2ccc(F)cc2)c1 [Compound 283] | 23 µg | 0.016% | 0.0013% | 0.00009% |  | > 0.01% | 0.0009%
16 | CC(C)C(=Nc1ccc(F)c(C(F)(F)F)c1)OCc1ccc(F)c(Oc2ccc(Cl)cc2)c1 [Compound 297] | 23 µg | 0.025% |  | 0.00027% | 0.0001% | 0.0071% | 0.00075%
17 | CC(C)C(=Nc1ccc(F)c(I)c1)OCc1ccc(F)c(Oc2ccc(Cl)cc2)c1 [Compound 326] | 25 µg | 0.03% | 0.004% | 0.00015% |  |  | 0.0005%
18 | CC(C)C(=Nc1ccc(F)c(Cl)c1F)OCc1cccc(Oc2ccccc2)c1 [Compound 332] | 7 µg | 0.015% | 0.0012% | 0.00045% |  |  | 0.00075%
19 | CC(C)C(=Nc1ccc(Br)cc1)OCc1ccc(F)c(Oc2ccc(F)cc2)c1 [Compound 333] | 15 µg | 0.025% | > 0.1% | 0.00024% |  | > 0.01% | 0.00075%
20 | CC(C)C(=Nc1ccc(I)cc1)OCc1ccc(F)c(Oc2ccc(F)cc2)c1 [Compound 335] | 34 µg | 0.05% | > 0.1% | 0.00027% |  | > 0.01% | 0.00025%
21 | CC(C)C(=Nc1ccc(F)c(Cl)c1)OCc1cccc(Oc2ccccc2)n1 [Compound 462] | 7 µg | 0.04% |  | 0.001% | 0.001% | > 0.05% | 0.0025%
22 | CC(C)C(=Nc1ccc(F)c(Cl)c1)OCc1cccc(Oc2ccc(Cl)cc2)n1 [Compound 463] | 8 µg | 0.0075% | 0.0024% | 0.00009% | 0.0003% | 0.01% | 
23 | CC(C)C(=Nc1ccc(F)c(Cl)c1F)OCc1cccc(Oc2ccc(Cl)cc2)n1 [Compound 500] | 16 µg | 0.02% | 0.002% | 0.00009% |  |  | 0.00075%
24 | C#CCc1c(F)c(F)c(COC(=Nc2ccc(F)c(Cl)c2)C(C)C)c(F)c1F [Compound 520] | 5.5 µg | > 0.1% |  | > 0.1% | 0.0003% | 0.0042% | 0.00075%
25 | CC(C)C(=Nc1ccc(F)c(Cl)c1F)OCc1cccc(Oc2ccc(F)cc2)n1 [Compound 521] | 7.5 µg | > 0.1% |  | 0.00005% | 0.05% | 0.01% | 0.0005%
26 | CC(C)C(=Nc1ccc(Cl)c(Cl)c1)OCc1cccc(Oc2ccc(Cl)cc2)n1 [Compound 523] | 22 µg | > 0.1% |  | 0.00015% | > 0.05% | > 0.01% | 0.0002%
27 | CC(C)C(=Nc1ccc(C(F)(F)F)cc1)OCc1cccc(Oc2ccc(Cl)cc2)n1 [Compound 530] | 9.8 µg | 0.005% |  | 0.00027% | 0.05% | > 0.01% | 0.00005%
28 | CC(C)C(=Nc1ccc(F)c(Cl)c1)OCc1cccc(Oc2ccc(F)c(F)c2)n1 [Compound 531] | 5 µg | > 0.1% |  | > 0.1% | > 0.05% | > 0.01% | 0.00037%
